The values that follow come from patent publication US20220339285A1, “DISSACHARIDE FORMULATIONS FOR CONTROLLED DRUG RELEASE” (TECHNICAL UNIVERSITY OF DENMARK, priority 2019, published 2022).

Data set [1] in a line: Experimentally obtained drug solubilities in gels. It counts as physicochemical. An excerpt: Experimentally obtained drug solubilities are given in the table (all percentages are weight %).
The nature of data set [2]: In vitro release of DOX base from SuBen and LOIB gels, fluorescence (Example 33). It is filed as physicochemical. The settings on record: 7 days at 37° C. Here is the method:
The vials were incubated at 37° C. After 7 days, 1 mL of PBS was taken and analysed by fluorescence spectroscopy.
Fluorescence spectroscopy: Fluorescence measurements were taken by a Tecan fluorescence microplate reader using 96-well, transparent Nunc plates. Sample volume was 200 μL.

Data set [3] can be described thus: In vitro release of Gardiquimod and Resiquimod from SuBen gels with different co-solvents, HPLC (Example 28). It counts as physicochemical. The settings on record: 49 days; for in vitro release of Gardiquimod: 1.2 mg/g, PBS 37° C. Here is the method: SuBen:GTO:EtOH (60:25:15 (% w/w)) and SuBen:Lipiodol:EtOH (60:25:15 (% w/w)) were prepared by simple mixing and sonication (80° C., 90-120 min) as described in example 19. […] SuBen:GTO:EtOH:PLA (60:25:15:0.5 (% w/w)), SuBen:Ethyl-palmitate:EtOH (60:25:15 (% w/w)), and SuBen:Ethyl-oleate:EtOH (60:25:15 (% w/w)) were prepared by simple mixing and sonication (80° C., 90-120 min) as described in example 19. […] The vials are closed with lids and are incubated at 37° C. At each sampling point, take 1 mL of buffer and place it inside an Eppendorf tube. Then add 1 mL of fresh buffer to replace the taken sample. The samples are analyzed by HPLC. […] For both compounds, the flowrate was 1 mL/min and the column temperature was 40° C.

The nature of data set [4]: Tested solubility of APIs in carbohydrate ester gels (Example 21). The following applies: in the gel formulations listed for each API in Table 8; maximal solubility may be higher than tested.
Description: Compositions are given in weight percent (or weight ratio) and each compound is weighed into one vial. The mixture is placed in an ultrasonication bath at 70-80° C. for 1-2 hours and occasionally vortexed to generate homogenous solutions that is subsequently stored at 4° C. until further use. Afterwards, all active pharmaceutical ingredients (APIs) are incorporated into the gels proportionally by adding gel on top of freeze-dried APIs or combinations of freeze-dried APIs. The gel is subjected to magnetic stirring at 40-50° C. until the API or combination of APIs is completely dissolved. The gel-API mixture is transferred and stored in sealed vials at room temperature or at 4° C. Certain gel-API mixtures may be stored at −20° C.
Data set [5] in a line: In vitro release of RepSox and Galunisertib from LOIB based gels into PBS (Example 14). The settings on record: for cumulative release: after 14 days, 8 mg/gram in 82.5 (% w/w) LOIB gel, 100 μL in 2 ml PBS. The protocol:
Following, 100 μL of each gel were injected in duplicates into 2 ml of PBS.

Data set [6] can be described thus: In vivo release of TGFb inhibitors from intratumoral gel depots (Example 32). The settings on record: 8 mg/g, 50 μL intratumoral, CT26 tumors, 7 days.
Description: Animal handling: For each formulation 50 μL of gel was injected intratumorally in female Balb/c mice with CT26 tumors (Initial tumor volume of approximately 200 mm^3). The mice were sacrificed at different time points and gel samples were collected. The gels were stored at 4° C. until analysis. For each gel, four mice were sacrificed at each timepoint.
Samples were heated to 50° C. and stirred at 600 rpm to promote dissolution. The samples were subsequently filtered through 0.45 μm pore, nylon syringe filters.
HPLC method: Samples were analyzed on a Shimadzu Nexera-i HPLC. […] The solvent system consisted of mobile phase A (5% MeCN, 0.1% TFA in water) and mobile phase B (0.1% TFA in MeCN). Chromatographic separation was achieved using an optimized gradient.
Data set [7] in a line: Co-solubilization of R848 and RepSox in LOIB gel (Example 15). It is filed as physicochemical. The following applies: with 2.4 mg R848. The protocol:
The mixture was solubilized using a magnetic stirring for 2 hours at 40-50° C. under continuous visual inspection.

The nature of data set [8]: Solubility and integrity of CLA-1 and CLA-8 in SuBen and LOIB gels (Example 22). It is filed as physicochemical. The settings on record: weight percentage. The protocol: HPLC assay: Samples were analyzed using a Shimadzu Nexera-i instrument. […] Chromatographic separation was achieved using a gradient of 40 to 100% phase B in 10 min. Ultraviolet detection at 280 nm was used to identify the CT contrast agents. Gel samples were prepared by dilution of 50 μL gel in 1 mL MeCN, which were then diluted 10-fold in MeCN.

The mark [9] stands for this setting: gel composition e.g LOIB 82.5%, SuBen 60%.

In data set [1] (gel composition e.g SuBen 60%), `CC1(N)CCN(c2cnc(-c3cccc(Cl)c3Cl)c(N)n2)CC1` [SHP099] gave a Solubility greater than 1 mg/g gel.

Consider `COc1cccc2c1C(=O)c1c(O)c3c(c(O)c1C2=O)C[C@@](O)(C(=O)CO)C[C@@H]3O[C@H]1C[C@H](N)[C@H](O)[C@H](C)O1` [DOX base, doxorubicin], for which, in data set [2], the “release from gels into PBS” value is “released from the gels”.

As to `CCNCc1nc2c(N)nc3ccccc3c2n1CC(C)(C)O` [Gardiquimod], the “reduction of Gardiquimod release on substitution of GTO with Lipiodol” value in data set [3] is on record as 6 fold. In addition, the results for the “in vitro release of Gardiquimod” value in data set [3] (SuBen:GTO:EtOH (60:25:15) gel) and in data set [3] (SuBen:Lipiodol:EtOH (60:25:15) gel) were 52.5% and 8.4%, respectively. In addition, in data set [1] (setting [9]), the Solubility is listed as greater than 1.5 mg/g gel.

Turning to `COc1ccc(CNC(=O)Nc2ncc([N+](=O)[O-])s2)cc1` [AR-A014418], the “Tested solubility in gels” value in data set [4] amounted to 1 mg/g gel.

As to `Cc1cccc(-c2[nH]ncc2-c2ccc3ncccc3n2)n1` [RepSox], the cumulative release result in data set [5] is “around 40%”. In data set [6], the “in vivo release from gel depot (ranking)” value is recorded as “fastest release”. Further, the “dissolved together with R848 in LOIB:GTO:EtOH (82.5:7.5:10) gel” value in data set [7] was 8 mg/g. Besides, the Solubility in data set [1] (setting [9]) is reported as greater than 8 mg/g gel.

In turn, `CC(C)Cn1cnc2c(N)nc3ccccc3c21` [Imiquimod] had a Solubility in data set [1] (gel composition e.g SuBen 60%) greater than 4.8 mg/g gel.

In the case of `O=C(OCC1OC(OC(=O)c2ccc(I)cc2)C(OC(=O)c2ccc(I)cc2)[C@@H](OC(=O)c2ccc(I)cc2)[C@@H]1O[C@@H]1OC(COC(=O)c2ccc(I)cc2)[C@H](OC(=O)c2ccc(I)cc2)[C@H](OC(=O)c2ccc(I)cc2)C1OC(=O)c1ccc(I)cc1)c1ccc(I)cc1` (stereo partly drawn) [CLA-8, α,β Lactose octa para-iodobenzoate], in data set [8], the “CLA-8 completely solubilized in LOIB gels” value is “up to 10%” and the “CLA-8 completely solubilized in SuBen gels” value was “up to 20%”.

Take `Fc1ccc(Cl)cc1-c1nc(Nc2ccncc2)c2nccnc2n1` [SD-208]: the Solubility in data set [1] (gel composition e.g SuBen 60%) and in data set [1] (gel composition e.g SuBen:LOIB 35%/35%) was greater than 8 mg/g gel each time.

For `Cc1cccc(-c2nn3c(c2-c2ccnc4ccc(C(N)=O)cc24)CCC3)n1` [Galunisertib], in data set [5], the “solubilized in LOIB-based gel formulations” value was no less than 8 mg/gram and the cumulative release is 27%. Besides, the “Tested solubility in gels” value in data set [4] is given as 8 mg/g gel. The compound also returned a Solubility in data set [1] (setting [9]) greater than 8 mg/g gel.

On to `CCOCc1nc2c(N)nc3ccccc3c2n1CC(C)(C)O` [Resiquimod (R848), Resiquimod], for which, in data set [1] (setting [9]), the Solubility is greater than 10 mg/g gel.
